# Biological target: Human V1b receptor (Homo sapiens (Human), UniProt P47901)
# Test: Binding Test for V1b Receptor ([3H]AVP, crude membrane preparation of 293FT cells)
# Conditions: inhibition of [3H]AVP binding (0.4 to 1 nmol/L), room temperature, 60 minutes
# Method in brief: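 Crude membranes from 293FT cells transiently expressing human V1b, incubated with [3H]AVP (0.4 to 1 nmol/L) and compound (0.01 nmol/L–1 μmol/L final) in Tris pH 7.4 with MgCl2 and 0.1% BSA, 60 min at room temperature. Bound label collected by filtration. Nonspecific binding defined with unlabeled AVP; IC50 from dose-response curve.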
# Chain of Human V1b receptor (P47901 whole entry): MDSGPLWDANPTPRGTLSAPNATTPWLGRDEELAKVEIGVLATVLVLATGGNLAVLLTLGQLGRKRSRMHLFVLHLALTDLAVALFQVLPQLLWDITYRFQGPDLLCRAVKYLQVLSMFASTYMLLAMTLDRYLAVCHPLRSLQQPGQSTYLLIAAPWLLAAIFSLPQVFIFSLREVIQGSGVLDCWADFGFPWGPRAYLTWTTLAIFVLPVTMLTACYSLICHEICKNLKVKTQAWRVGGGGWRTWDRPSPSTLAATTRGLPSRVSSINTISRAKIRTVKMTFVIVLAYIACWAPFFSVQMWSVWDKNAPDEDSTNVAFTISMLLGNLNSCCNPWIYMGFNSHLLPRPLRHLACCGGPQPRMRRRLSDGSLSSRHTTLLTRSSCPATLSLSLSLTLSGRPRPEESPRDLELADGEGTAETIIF
row,SMILES,IC50 [nM]
1,"CC(C)NC(=O)Cc1cc(-c2ccc(CCN3CCOCC3)cc2)nn1-c1cccc(Cl)c1 [Example C-05, 2-[1-(3-chlorophenyl)-3-{4-[2-(morpholin-4-yl)ethyl]phenyl}-1H-pyrazol-5-yl]-N-(propan-2-yl)acetamide]",21
2,"CC(C)NC(=O)Cn1nc(-c2ccc(CCN3CCCCC3)cc2)cc1-c1cccc(Cl)c1 [Example C-06, 2-[5-(3-chlorophenyl)-3-{4-[2-(piperidin-1-yl)ethyl]phenyl}-1H-pyrazol-1-yl]-N-(propan-2-yl)acetamide]",17
3,"CC(C)NC(=O)Cn1nc(-c2ccc(CCN3CCOCC3)cc2)cc1-c1cccc(Cl)c1 [Example C-07, 2-[5-(3-chlorophenyl)-3-{4-[2-(morpholin-4-yl)ethyl]phenyl}-1H-pyrazol-1-yl]-N-(propan-2-yl)acetamide]",7.1
4,"CC(C)NC(=O)Cc1nc(-c2ccc(CCN3CCCCC3)cc2)oc1-c1cccc(Cl)c1 [Example C-08, 2-[5-(3-chlorophenyl)-2-{4-[2-(piperidin-1-yl)ethyl]phenyl}-1,3-oxazol-4-yl]-N-(propan-2-yl)acetamide]",10 to 100
5,"CC(C)NC(=O)Cc1nc(-c2ccc(CCN3CCOCC3)cc2)oc1-c1cccc(Cl)c1 [Example C-09, 2-[5-(3-chlorophenyl)-2-{4-[2-(morpholin-4-yl)ethyl]phenyl}-1,3-oxazol-4-yl]-N-(propan-2-yl)acetamide]",27
6,"CC(C)NC(=O)Cc1oc(-c2ccc(CCN3CCCCC3)cc2)nc1-c1cccc(Cl)c1 [Example C-10, 2-[4-(3-chlorophenyl)-2-{4-[2-(piperidin-1-yl)ethyl]phenyl}-1,3-oxazol-5-yl]-N-(propan-2-yl)acetamide]",6.5
7,"CC(C)NC(=O)Cc1oc(-c2ccc(CCN3CCOCC3)cc2)nc1-c1cccc(Cl)c1 [Example C-11, 2-[4-(3-chlorophenyl)-2-{4-[2-(morpholin-4-yl)ethyl]phenyl}-1,3-oxazol-5-yl]-N-(propan-2-yl)acetamide]",3.9
8,"CC(C)NC(=O)Cc1nc(-c2ccc(CCN3CCCCC3)cc2)sc1-c1cccc(Cl)c1 [Example C-13, 2-[5-(3-chlorophenyl)-2-{4-[2-(piperidin-1-yl)ethyl]phenyl}-1,3-thiazol-4-yl]-N-(propan-2-yl)acetamide]",16
9,"CC(C)NC(=O)Cc1nc(-c2ccc(CCN3CCOCC3)cc2)sc1-c1cccc(Cl)c1 [Example C-14, 2-[5-(3-chlorophenyl)-2-{4-[2-(morpholin-4-yl)ethyl]phenyl}-1,3-thiazol-4-yl]-N-(propan-2-yl)acetamide]",14
10,"CC(C)NC(=O)Cc1nc(-c2ccc(CCN3CC4(COC4)C3)cc2)sc1-c1cccc(Cl)c1 [Example C-15, 2-[5-(3-chlorophenyl)-2-{4-[2-(2-oxa-6-azaspiro[3.3]hept-6-yl)ethyl]phenyl}-1,3-thiazol-4-yl]-N-(propan-2-yl)acetamide]",22
11,"CC(C)NC(=O)Cc1nc(-c2cccc(CCN3CCCCC3)c2)sc1-c1cccc(Cl)c1 [Example C-16, 2-[5-(3-chlorophenyl)-2-{3-[2-(piperidin-1-yl)ethyl]phenyl}-1,3-thiazol-4-yl]-N-(propan-2-yl)acetamide]",100 to 1000
12,"CC(C)NC(=O)Cc1nc(-c2cccc(CCN3CCOCC3)c2)sc1-c1cccc(Cl)c1 [Example C-17, 2-[5-(3-chlorophenyl)-2-{3-[2-(morpholin-4-yl)ethyl]phenyl}-1,3-thiazol-4-yl]-N-(propan-2-yl)acetamide]",100 to 1000
13,"CC(C)NC(=O)CC1=C(c2cccc(Cl)c2)C(=O)N(c2ccc(CCN3CCOCC3)cc2)C1=O [Example C-18, 2-[4-(3-chlorophenyl)-1-{4-[2-(morpholin-4-yl)ethyl]phenyl}-2,5-dioxo-2,5-dihydro-1H-pyrrol-3-yl]-N-(propan-2-yl)acetamide]",9
14,"CC(C)NC(=O)Cn1c(-c2cccc(Cl)c2)cn(-c2ccc(CCN3CCOCC3)cc2)c1=O [Example C-19, 2-[5-(3-chlorophenyl)-3-{4-[2-(morpholin-4-yl)ethyl]phenyl}-2-oxo-2,3-dihydro-1H-imidazol-1-yl]-N-(propan-2-yl)acetamide]",2.2
15,"Cc1c(-c2cccc(Cl)c2)n(CC(=O)NC(C)C)c(=O)n1-c1ccc(CCN2CCOCC2)cc1 [Example C-20, 2-[5-(3-chlorophenyl)-4-methyl-3-{4-[2-(morpholin-4-yl)ethyl]phenyl}-2-oxo-2,3-dihydro-1H-imidazol-1-yl]-N-(propan-2-yl)acetamide]",10 to 100
16,"CC(C)NC(=O)Cc1nc(-c2ccc(CCN3CCOCC3)cc2)nn1-c1cccc(Cl)c1 [Example C-21, 2-[1-(3-chlorophenyl)-3-{4-[2-(morpholin-4-yl)ethyl]phenyl}-1H-1,2,4-triazol-5-yl]-N-(propan-2-yl)acetamide]",14
17,"CC(C)NC(=O)Cc1nc(-c2ccc(CCN3C4CCC3COC4)cc2)nn1-c1cccc(Cl)c1 [Example C-22, 2-[1-(3-chlorophenyl)-3-{4-[2-(3-oxa-8-azabicyclo[3.2.1]oct-8-yl)ethyl]phenyl}-1H-1,2,4-triazol-5-yl]-N-(propan-2-yl)acetamide]",8.8
18,"CC(C)NC(=O)Cc1nn(-c2ccc(CCN3C4CCC3COC4)cn2)c(=O)n1-c1cccc(Cl)c1 [Example D-02, 2-[4-(3-chlorophenyl)-1-{5-[2-(3-oxa-8-azabicyclo[3.2.1]oct-8-yl)ethyl]pyridin-2-yl}-5-oxo-4,5-dihydro-1H-1,2,4-triazol-3-yl]-N-(propan-2-yl)acetamide]",10 to 100
19,"CC(C)NC(=O)Cc1nn(-c2ccc(CCN3C4CCC3COC4)cc2)c(=O)n1-c1cccc(Cl)c1 [Example D-03, 2-[4-(3-chlorophenyl)-1-{4-[2-(3-oxa-8-azabicyclo[3.2.1]oct-8-yl)ethyl]phenyl}-5-oxo-4,5-dihydro-1H-1,2,4-triazol-3-yl]-N-(propan-2-yl)acetamide]",14
20,"COc1cccc(-n2c(CC(=O)NC(C)(C)C)nn(-c3ccc(CCN4C5CCC4COC5)cc3)c2=O)c1 [Example D-07, N-tert-butyl-2-[4-(3-methoxyphenyl)-1-{4-[2-(3-oxa-8-azabicyclo[3.2.1]oct-8-yl)ethyl]phenyl}-5-oxo-4,5-dihydro-1H-1,2,4-triazol-3-yl]acetamide]",5.5
21,"COc1cccc(-n2c(CC(=O)NC(C)(C)C)nn(-c3ccc(CCN4C5CCC4COC5)cn3)c2=O)c1 [Example D-09, N-tert-butyl-2-[4-(3-methoxyphenyl)-1-{5-[2-(3-oxa-8-azabicyclo[3.2.1]oct-8-yl)ethyl]pyridin-2-yl}-5-oxo-4,5-dihydro-1H-1,2,4-triazol-3-yl]acetamide]",10 to 100
22,"COc1cc(-n2c(CC(=O)NC(C)(C)C)nn(-c3ccc(CCN4C5CCC4COC5)cc3)c2=O)ccc1F [Example D-10, N-tert-butyl-2-[4-(4-fluoro-3-methoxyphenyl)-1-{4-[2-(3-oxa-8-azabicyclo[3.2.1]oct-8-yl)ethyl]phenyl}-5-oxo-4,5-dihydro-1H-1,2,4-triazol-3-yl]acetamide]",7.1
23,"COc1cc(-n2c(CC(=O)NC(C)(C)C)nn(-c3ccc(CCN4C5CCC4COC5)cn3)c2=O)ccc1F [Example D-12, N-tert-butyl-2-[4-(4-fluoro-3-methoxyphenyl)-1-{5-[2-(3-oxa-8-azabicyclo[3.2.1]oct-8-yl)ethyl]pyridin-2-yl}-5-oxo-4,5-dihydro-1H-1,2,4-triazol-3-yl]acetamide]",7
24,"CC(C)(C)NC(=O)Cc1nn(-c2ccc(CCN3C4CCC3COC4)cn2)c(=O)n1-c1cccc(Cl)c1 [Example D-16, N-tert-butyl-2-[4-(3-chlorophenyl)-1-{5-[2-(3-oxa-8-azabicyclo[3.2.1]oct-8-yl)ethyl]pyridin-2-yl}-5-oxo-4,5-dihydro-1H-1,2,4-triazol-3-yl]acetamide]",10 to 100

# The next lines start with the values.
row,IC50 [nM],SMILES
1,100 to 1000,"CC(C)NC(=O)Cc1nn(-c2ccc(CCN3CCOCC3)cn2)c(=O)n1-c1cccc(Cl)c1 [Example D-04, 2-[4-(3-chlorophenyl)-1-{5-[2-(morpholin-4-yl)ethyl]pyridin-2-yl}-5-oxo-4,5-dihydro-1H-1,2,4-triazol-3-yl]-N-(propan-2-yl)acetamide]"
2,2.5,"COc1cc(-n2c(CC(=O)NC(C)(C)C)nn(-c3ccc(CCN4CCOCC4)cc3)c2=O)ccc1F [Example D-05, N-tert-butyl-2-[4-(4-fluoro-3-methoxyphenyl)-1-{4-[2-(morpholin-4-yl)ethyl]phenyl}-5-oxo-4,5-dihydro-1H-1,2,4-triazol-3-yl]acetamide]"
3,4.6,"COc1cccc(-n2c(CC(=O)NC(C)(C)C)nn(-c3ccc(CCN4CCOCC4)cc3)c2=O)c1 [Example D-06, N-tert-butyl-2-[4-(3-methoxyphenyl)-1-{4-[2-(morpholin-4-yl)ethyl]phenyl}-5-oxo-4,5-dihydro-1H-1,2,4-triazol-3-yl]acetamide]"
4,10 to 100,"COc1cccc(-n2c(CC(=O)NC(C)(C)C)nn(-c3ccc(CCN4CCOCC4)cn3)c2=O)c1 [Example D-08, N-tert-butyl-2-[4-(3-methoxyphenyl)-1-{5-[2-(morpholin-4-yl)ethyl]pyridin-2-yl}-5-oxo-4,5-dihydro-1H-1,2,4-triazol-3-yl]acetamide]"
5,10 to 100,"COc1cc(-n2c(CC(=O)NC(C)(C)C)nn(-c3ccc(CCN4CCOCC4)cn3)c2=O)ccc1F [Example D-11, N-tert-butyl-2-[4-(4-fluoro-3-methoxyphenyl)-1-{5-[2-(morpholin-4-yl)ethyl]pyridin-2-yl}-5-oxo-4,5-dihydro-1H-1,2,4-triazol-3-yl]acetamide]"
6,10 to 100,"CC(C)(C)NC(=O)Cc1nn(-c2ccc(CCN3CCOCC3)cn2)c(=O)n1-c1cccc(Cl)c1 [Example D-15, N-tert-butyl-2-[4-(3-chlorophenyl)-1-{5-[2-(morpholin-4-yl)ethyl]pyridin-2-yl}-5-oxo-4,5-dihydro-1H-1,2,4-triazol-3-yl]acetamide]"
